Laboratory results as given in paper PMC12165799, “Antimicrobial peptide developed with machine learning sequence optimization targets drug resistant Staphylococcus aureus in mice” (The Journal of Clinical Investigation, 2025).
Read-outs that look alike come from different tables or passages of the source.

Experiments:
[1] = system: S. aureus MW2 24 h established biofilm; details: 24 h treatment
Method: 346 plated onto TSA plates, and incubated plates at 37°C overnight. The next day, we counted the
347 viable bacterial colonies.
We used TSB medium containing
356 bacteria with water as the positive control, while TSB media with sterile water served as the
357 negative control. After incubation, we carefully removed the TSB medium and washed the wells
358 with PBS (Gibco, MD, USA) to remove loosely attached planktonic cells. We quantified the
359 biomass by staining the biofilms with crystal violet following an established protocol and
360 quantitated the concentration of peptide that inhibits 50% of biofilm formation (MBIC50)(8). We
361 measured the live cell count of the biofilms using XTT dye [2,3-bis(2-methyloxy-4-nitro-5-
362 sulfophenyl)-2H-tertazolium-5-carboxanilide] (ATCC, VA, USA). We calculated the percentage
363 of biofilm growth by normalizing to biofilm growth in wells containing bacteria without peptide
366 Disruption of S. aureus MW2 established biofilms
367 We evaluated the ability of the citropin 1.1-derived peptides to disrupt established biofilms
368 following an established protocol with modifications (5). We prepared exponential cultures of S.
369 aureus MW2 (adjusted to 1 × 10^6 CFU/ml) in TSB medium (supplemented with 0.2% glucose)
370 from overnight grown cultures. We added 100 µl of bacterial culture to flat-bottomed 96-well
371 polystyrene microtiter plates (Cat no. 3595, Corning, NY, USA). We then incubated the plates at
372 37°C for 24 hours in static conditions to allow biofilm formation. After incubation, we carefully
373 pipetted out the TSB medium and washed the wells with PBS (Gibco, MD, USA) to remove
374 loosely attached planktonic cells. We treated the established biofilms in each well with 10 µl of
375 serially diluted 10× peptide solution, followed by the addition of 90 μl TSB medium
376 (supplemented with 0.2% glucose). We incubated the plates for another 24 h at 37°C before
377 processing biomass and live-cell contents. We calculated the concentration of peptide that disrupts
378 50% of established biofilms (MBEC50).

[2] = system: S. aureus MW2; experiment: ATP release assay (luciferase); type: cell-based, Staphylococcus aureus; details: 32 μg/mL, 30 minutes
Method: (§1) 484 min at room temperature in the dark based on a previously established protocol (8). We added 90
(§2) 485 µl of the dye/bacteria mixture to 10 μl of serially diluted 10× peptide concentration in black, 96-
(§3) 486 well plates (Cat. no. 3904, Corning, NY, USA) and incubated the plates for 1 hour at room
(§4) 487 temperature. We measured the fluorescence with excitation and emission wavelengths of 485 nm
(§5) 488 and 525 nm, respectively in endpoint assay mode using a SpectraMax i3x (Molecular Devices,
(§6) 489 CA, USA) fluorescence reader.
(§7) 490 Propidium iodide-based membrane permeability
(§8) 491 We used a propidium iodide (Thermo Fisher Scientific, MA, USA) fluorescence-based
(§9) 492 bacterial permeation assay to establish membrane-oriented interactions with the designed peptides
(§10) 493 based on a previously established protocol (8). We prepared exponential phase S. aureus MW2
(§11) 494 bacteria and diluted to OD600 = 0.4 in PBS. We added PI dye (final concentration = 2 µM) to the
(§12) 495 bacteria in 1:10 serial dilutions in black, 96-well plates (Cat. no. 3904, Corning, NY, USA) and
(§13) 496 incubated the plates for 1 hour at room temperature. We then measured the fluorescence with an
(§14) 497 excitation wavelength of 584 nm and an emission wavelength of 620 nm in endpoint assay mode
(§15) 498 using a SpectraMax i3x (Molecular Devices, CA, USA) fluorescence reader.
(§16) 501 To determine the ATP leakage potential of the peptides, we employed a luciferase-based […]

[3] = system: S. aureus MW2 membrane; experiment: SYTOX-based cell membrane permeability assay; design: species or system Staphylococcus aureus; details: S. aureus MW2, 1 hour; CIT-8 4–32 μg/mL
Method: as §1, §2, §3, §4, §5, §6, §7, §8, §9, §10, §11, §12, §13, §14, §15, §16

Compound | Established biofilm, biomass (crystal violet), percentage of untreated ([1]; 4 μg/ml, replicate 1) | Established biofilm, live-cell viability (XTT), percentage of untreated ([1]; 4 μg/ml, replicate 1) | Established biofilm, biomass (crystal violet), percentage of untreated ([1]; 4 μg/ml, replicate 2) | Established biofilm, live-cell viability (XTT), percentage of untreated ([1]; 4 μg/ml, replicate 2) | Established biofilm, biomass (crystal violet), percentage of untreated ([1]; 4 μg/ml, replicate 3) | Established biofilm, live-cell viability (XTT), percentage of untreated ([1]; 4 μg/ml, replicate 3) | Established biofilm, biomass (crystal violet), percentage of untreated ([1]; 8 μg/ml, replicate 1) | Established biofilm, live-cell viability (XTT), percentage of untreated ([1]; 8 μg/ml, replicate 1) | Established biofilm, live-cell viability (XTT), percentage of untreated ([1]; 8 μg/ml, replicate 2) | Established biofilm, biomass (crystal violet), percentage of untreated ([1]; 8 μg/ml, replicate 3) | Established biofilm, live-cell viability (XTT), percentage of untreated ([1]; 8 μg/ml, replicate 3) | Established biofilm, biomass (crystal violet), percentage of untreated ([1]; 16 μg/ml, replicate 1) | Established biofilm, live-cell viability (XTT), percentage of untreated ([1]; 16 μg/ml, replicate 1) | Established biofilm, biomass (crystal violet), percentage of untreated ([1]; 16 μg/ml, replicate 2) | Established biofilm, live-cell viability (XTT), percentage of untreated ([1]; 16 μg/ml, replicate 2) | Established biofilm, biomass (crystal violet), percentage of untreated ([1]; 16 μg/ml, replicate 3) | Established biofilm, live-cell viability (XTT), percentage of untreated ([1]; 16 μg/ml, replicate 3) | Established biofilm, biomass (crystal violet), percentage of untreated ([1]; 32 μg/ml, replicate 1) | Established biofilm, live-cell viability (XTT), percentage of untreated ([1]; 32 μg/ml, replicate 1) | Established biofilm, biomass (crystal violet), percentage of untreated ([1]; 32 μg/ml, replicate 2) | further results
CN[C@H](CC(C)C)C(=O)N[C@H]1C(=O)N[C@@H](CC(N)=O)C(=O)N[C@H]2C(=O)N[C@H]3C(=O)N[C@H](C(=O)N[C@H](C(=O)O)c4cc(O)cc(O)c4-c4cc3ccc4O)[C@H](O)c3ccc(c(Cl)c3)Oc3cc2cc(c3O[C@@H]2O[C@H](CO)[C@@H](O)[C@H](O)[C@H]2O[C@H]2C[C@](C)(N)[C@H](O)[C@H](C)O2)Oc2ccc(cc2Cl)[C@H]1O [Vancomycin, reference compound] | 149.693 | 100.129 | 84.8543 | 106.559 | 49.5143 | 106.192 | 88.3691 | 102.865 | 105.547 | 88.3308 | 106.722 | 138.471 | 64.3129 | 273.773 | 78.7072 | 273.774 | 47.5625 | 98.1851 | 0.7061 | 78.1697 | Established biofilm, live-cell viability (XTT), percentage of untreated ([1]; 32 μg/ml, replicate 2): 1.691; Established biofilm, biomass (crystal violet), percentage of untreated ([1]; 32 μg/ml, replicate 3): 90.9509; Established biofilm, live-cell viability (XTT), percentage of untreated ([1]; 32 μg/ml, replicate 3): 6.084
H-GLFKVIKKLLKVI-NH2 [CIT-8] | 131.685 | 82.5027 | 134.586 | 94.0114 | 61.6564 | 89.5709 | 62.9601 | 83.9897 | 89.9036 | 70.3988 | 92.7553 | 49.8211 | 6.002 | 67.6508 | 15.664 | 56.1605 | 21.3742 | 28.3231 | 9.9063 | 39.7878 | ATP leakage, luminescence [2]: increased luminescence levels; SYTOX Green fluorescence (membrane permeation) [3]: significantly increased fluorescence levels; Established biofilm, biomass (crystal violet), percentage of untreated ([1]; 8 μg/ml, replicate 2): 123.287; Established biofilm, live-cell viability (XTT), percentage of untreated ([1]; 32 μg/ml, replicate 2): 2.777; Established biofilm, biomass (crystal violet), percentage of untreated ([1]; 32 μg/ml, replicate 3): 32.068; Established biofilm, live-cell viability (XTT), percentage of untreated ([1]; 32 μg/ml, replicate 3): 4.02; Concentration killing 50% of live cells in 24 h established biofilm ([1]; XTT): 12 µg/mL; MBEC50 (50% of biomass disrupted) ([1]; crystal violet, 24 h established biofilm): 24 µg/mL
